This is an account of results in patent publication US20040091528A1, “Soluble drug extended release system” (Yamanouchi Pharma Technologies, Inc., priority 2002, published 2004).

Where a name gives a salt, the structure may show the parent alone. Read-outs that look alike come from different tables or passages of the source.

Data set [1] in a line: In vitro dissolution (drug release) from 400 mg matrix tablets, USP apparatus II, SGF or SIF. As to conditions: for T50 in SGF: modified SGF; for T50 (time during which 50% of drug has been released from matrix): 10 wt. % drug, 400 mg PAA/PEO (1:1.5) tablet, modified SIF; for T10 / T50: 1:1.5 PAA/PEO excipient mixture; for T50 in SIF / T10 / T50 / T50 values in SIF, PAA/PEO: SIF; for T50 values in SIF, PAA/PEO: PAA/PEO (1:1.5) formulation, 10% of active; for Comments (interaction with PAA): Table 2. Also noted: T50 (time during which 50% of drug has been released from matrix): unit not given here. The format is physicochemical. The protocol:
Several different formulations with different drugs were manufactured. Drugs were manually mixed with the excipients in a mortar and compressed into 400 mg tablets using Carver press or Oil press with 1000 lb applied force. Flat face 11 mm round tooling was used.
In vitro drug release was measured by in vitro dissolution experiments. […] Drug release was evaluated with either Simulated Gastric Fluid (SGF), pH=1.2 or Simulated Intestinal Fluid (SIF), pH=7.5, both prepared according to USP without enzyme added. Tablet sinkers were applied in all experiments. At predetermined time intervals, a sample was withdrawn from the vessel and assayed using a UV-VIS spectrophotometer at a wavelength of 240 nm.
The release behavior of a large group of basic highly soluble drugs (10 wt. % of drug ) from a directly compressed matrix tablet using 1:1.5 polyacrylic acid/polyethylene oxide (PAA/PEO) mix as excipient was studied under modified Simulated Intestinal Fluid (SIF) conditions.

The conditions of data set [2]: cited from earlier work.
For data set [3] the following is noted: cited from earlier work; for Log P: Table 1; for LogP: Table 4.
The nature of data set [4]: In vitro dissolution (drug release) from 400 mg matrix tablets, USP apparatus II, SGF or SIF. The format is physicochemical. As to conditions: for T50 values in SIF, PAA/Car: PAA/Carrageenan (1:1) formulation, 25% of active; for T50: negatively charged drugs from negatively charged PAA/PEO matrix.
[5] abbreviates: Table 1, model drug characteristics.
[6] abbreviates: Table 2, positively charged drugs.

The term Solubility denotes the concentration that dissolves in the medium under given conditions. By Log P is commonly meant the decadic logarithm of the partition coefficient of the neutral form, usually between octanol and water. A word on the LogP: it is a log measure of how a compound divides between an organic and an aqueous phase.

Consider `COc1cccc(C2(O)CCCCC2CN(C)C)c1` (centres unmarked) [Tramadol HCl], for which, in data set [1] (1:1.5 PAA/PEO), the “T50 in SIF” value was found to be 31 h and the “T50 in SGF” value came to 8 h. For the same compound, the “T50 (time during which 50% of drug has been released from matrix)” value in data set [1] is 31. In addition, the Solubility in data set [2] (setting [5]) is >1000 mg/mL. Moreover, the “Log P” value in data set [3] is listed as 2.5.
As to `C[N+](C)(C)CC(=O)O` [Betaine], in data set [1], the T10 was 6 h and the T50 came out at 22 h. Moreover, the Solubility in data set [2] (setting [6]) was 650 mg/mL.
With `CC1OC2(CS1)CN1CCC2CC1` (centres unmarked) [Cevimeline HCl], in data set [1], the “T50 (time during which 50% of drug has been released from matrix)” value was determined as 4.5. Further, the Solubility in data set [2] (setting [5]) was 766 mg/mL. In addition, the “Log P” value in data set [3] is on record as 1.1.
Take `CN(C)CCOC(c1ccccc1)c1ccccc1` [Diphenhydramine HCl]: in data set [1], the “T50 (time during which 50% of drug has been released from matrix)” value stood at 15 and the “T50 values in SIF, PAA/PEO” value was 15. Besides, the “T50 values in SIF, PAA/Car” value in data set [4] is reported as 8.
Take `CN[C@@H](C)[C@@H](O)c1ccccc1` [Pseudoephedrine HCl]: the “T50 (time during which 50% of drug has been released from matrix)” value in data set [1] stood at 4. Also, the “Log P” value in data set [3] is recorded as 1.0.
As to `CN(C)CCOC(C)(c1ccccc1)c1ccccn1` (centres unmarked) [Doxylamine Succinate], in data set [1], the “T50 (time during which 50% of drug has been released from matrix)” value is given as 23 and the “T50 values in SIF, PAA/PEO” value came out at 23. For the same compound, the Solubility in data set [2] (setting [5]) is 1000 mg/mL. For the same compound, the “T50 values in SIF, PAA/Car” value in data set [4] is listed as 22. For the same compound, in data set [3], the log partition coefficient (Log P) is on record as 2.5 and the LogP was 2.5.
In the case of `CO[C@@]1(NC(=O)CSCC#N)C(=O)N2C(C(=O)[O-])=C(CSc3nnnn3C)CS[C@@H]21.[Na+]` [sodium cefmatazole], the T50 entry in data set [4] is on record as “about 5 hours”.
In the case of `CCOc1ccccc1OCCN[C@H](C)Cc1ccc(OC)c(S(N)(=O)=O)c1` [Tamsulosin HCl], the “T50 values in SIF, PAA/PEO” value in data set [1] came out at 26. For the same compound, in data set [4], the “T50 values in SIF, PAA/Car” value was 25. Besides, in data set [3], the log partition coefficient (LogP) is on record as 2.24.
For `Cc1nnc(SCC2=C(C(=O)[O-])N3C(=O)[C@@H](NC(=O)Cn4cnnn4)[C@H]3SC2)s1.[Na+]` [sodium cefazoline], in data set [4], the T50 entry is given as “about 5 hours”.
Take `CCCCOc1cc(C(=O)OCCN(CC)CC)ccc1N` [Benoxinate HCl]: in data set [1], the “T50 (time during which 50% of drug has been released from matrix)” value is given as 22 and the “T50 values in SIF, PAA/PEO” value is 22. Besides, the Solubility in data set [2] (setting [5]) is 1000 mg/mL. For the same compound, the “T50 values in SIF, PAA/Car” value in data set [4] is listed as 23. Further, in data set [3], the “Log P” value was 4.0 and the LogP is 5.2.
Take `C[N+](C)(C)CC(=O)O` [Betaine Hydrochloride]: in data set [1] (1:1.5 PAA/PEO), the “T50 in SIF” value came to 22 h and the “T50 in SGF” value amounted to 4 h.
In the case of Amitriptuline HCl, the “T50 (time during which 50% of drug has been released from matrix)” value in data set [1] was 57.
As to `Cc1ncc(C[n+]2csc(CCO)c2C)c(N)n1` [Thiamine HCl], in data set [1], the T10 came out at 1 h; the T50 turned out to be 7.5 h; the “T50 values in SIF, PAA/PEO” value was determined as 7.5. Further, in data set [1] (permanently positively charged molecules, 1:1.5 PAA/PEO), the “Release behaviour (in words)” value was “slightly fast release”. Further, the Solubility in data set [2] (setting [6]) was 1000 mg/mL. Further, in data set [4], the “T50 values in SIF, PAA/Car” value was 7.5.
For the compound `Cc1ncc(CO)c(CO)c1O.Cl` [Pyridoxine HCl], in data set [1], the “T50 (time during which 50% of drug has been released from matrix)” value is 4. Also, in data set [3], the “Log P” value is given as −1.9.
As for `CC(C)(C)CC(C)(C)c1ccc(OCCOCC[N+](C)(C)Cc2ccccc2)cc1` [Benzethonium Chloride], in data set [1], the T10 was 25 h and the “Comments (interaction with PAA)” value is on record as “Forms insoluble”.
Take Diphenhydramine Citrate: in data set [1] (1:1.5 PAA/PEO), the “T50 in SIF” value worked out at 25 h and the “T50 in SGF” value was found to be 12 h.
For the compound `CNS(=O)(=O)CCc1ccc2[nH]cc(C3CCN(C)CC3)c2c1` [Naratriptan HCl], the “T50 values in SIF, PAA/PEO” value in data set [1] was 22. Besides, in data set [4], the “T50 values in SIF, PAA/Car” value worked out at 25. Further, the LogP in data set [3] is given as 1.8.
As for `CNC(=C[N+](=O)[O-])NCCSCc1ccc(CN(C)C)o1` [Ranitidine HCl], in data set [1], the “T50 (time during which 50% of drug has been released from matrix)” value is on record as 11 and the “T50 values in SIF, PAA/PEO” value turned out to be 11. For the same compound, the Solubility entry in data set [2] (setting [5]) is listed as “˜200 mg/ml”. Also, the “T50 values in SIF, PAA/Car” value in data set [4] was determined as 15. Also, in data set [3], the “Log P” value is on record as 1.3 and the LogP is recorded as 1.3.
Turning to `CN(C)CCCN1c2ccccc2Sc2ccc(Cl)cc21` [Chlorpromazine HCl], the “T50 (time during which 50% of drug has been released from matrix)” value in data set [1] is recorded as 56. Further, the Solubility in data set [2] (setting [5]) is 400 mg/mL.
`CN(C)CCCN1c2ccccc2CCc2ccccc21` [Imipramine HCl]: in data set [1], the “T50 (time during which 50% of drug has been released from matrix)” value stood at 58. In addition, the Solubility in data set [2] (setting [5]) is 500 mg/mL.
`CC(C[N+](C)(C)C)OC(N)=O` (centres unmarked) [Bethanechol Chloride]: in data set [1], the T10 is 10 h, the T50 was 55 h and the “Comments (interaction with PAA)” value is on record as “Forms insoluble”. In addition, in data set [1] (1:1.5 PAA/PEO), the “T50 in SIF” value was 55 h and the “T50 in SGF” value worked out at 24 h.
Consider `COc1ccc([C@@H]2Sc3ccccc3N(CCN(C)C)C(=O)[C@@H]2OC(C)=O)cc1` [Diltiazem HCl], for which, in data set [1] (1:1.5 PAA/PEO), the “T50 in SIF” value is 18 h and the “T50 in SGF” value turned out to be 8 h. Further, in data set [1], the “T50 (time during which 50% of drug has been released from matrix)” value is reported as 18 and the “T50 values in SIF, PAA/PEO” value came to 18. In data set [2] (setting [5]), the Solubility is 800 mg/mL. In data set [4], the “T50 values in SIF, PAA/Car” value was 21. For the same compound, in data set [3], the “Log P” value is on record as 3.6 and the LogP is recorded as 3.6.
